Assay results taken from publication PMC11343806 (Journal of Biological Inorganic Chemistry, 2024).
Read-outs that look alike come from different tables or passages of the source.

Key:
[1] = tested on: A-549 lung cancer cells; assay: Antiproliferative assay (crystal violet); type: cell-based, human; details: 72 h exposure, ± standard deviation, n = 2–4, read-out: IC50, antiproliferative effects, A-549
Description: (§1) The antiproliferative effects were determined according to a previously published procedure. A volume of 100 µL of cell suspension of A549 cells, MDA-MB-231, HT-29 or Vero E6 cells was transferred into the wells of a 96-well plates and incubated at 37 °C under 5% CO2 for 72 h. […] The results were calculated as the mean values of three independent experiments, unless stated otherwise.

[2] = tested on: MDA-MB-231 breast cancer cells; assay: Antiproliferative assay (crystal violet); type: cell-based, human; details: 96 h exposure, ± standard deviation, n = 2–4, read-out: IC50, antiproliferative effects, MDA-MB-231
Description: as §1

[3] = tested on: HT-29 colon carcinoma cells; assay: Antiproliferative assay (crystal violet); type: cell-based, human; details: 72 h exposure, ± standard deviation, n = 2–4, read-out: IC50, antiproliferative effects, HT-29
Description: as §1

[4] = tested on: aerobic Gram-positive and Gram-negative pathogenic bacteria strains; assay: MIC, summary over the panel of aerobic bacteria; type: cell-based; details: for MIC values against all bacteria strains: all strains of the panel
Description: (§2) The following strains were used and maintained at 37 °C in MHB (21 g/L Müller Hinton, pH 7.4) or TSY (30 g/L trypticase soy broth, 3 g/L yeast extract, pH 7.0–7.2) medium. Acinetobacter baumannii (DSM 30007, ATCC 19606) in MHB, Escherichia coli (DSM1116, ATCC 9637) in TSY, Klebsiella pneumoniae (DSM 11678, ATCC33495) in MHB, Pseudomonas aeruginosa PA7 (DSM 24068) in MHB, Enterococcus faecium (DSM 20477, ATCC 19434) in TSY, Staphylococcus aureus MRSA (DSM 11822, ICB 25701) in TSY). Minimum inhibitory concentration (MIC) values were determined following a standardized protocol in broth dilution assays. […] Starting inocula of 2–8 × 10^5 colony-forming units per ml in MHB or TSY media at 37 °C were used, and serial dilutions were carried out in 384-well microtiter plates in duplicate. […] The MIC values for the tested compounds were determined in three independent experiments by a curve-fitting procedure using the GraphPad Prism software (Graphpad Software, Inc.).

[5] = tested on: Acinetobacter baumannii (DSM 30007, ATCC 19606); assay: MIC broth dilution, aerobic bacteria; type: cell-based; details: 20 h at 37 °C, ± standard error, n ≥ 3
Description: as §2

[6] = tested on: Pseudomonas aeruginosa PA7 (DSM 24068); assay: MIC broth dilution, aerobic bacteria; type: cell-based; details: ± standard error, n ≥ 3, read-out: MIC, P.aeruginosa
Description: as §2

[7] = tested on: Enterococcus faecium (DSM 20477, ATCC 19434); assay: MIC broth dilution, aerobic bacteria; type: cell-based; details: 20 h at 37 °C, ± standard error; for MIC, E. faecium: n ≥ 3; for MIC: n ≥ 3, read-out: MIC, E. faecium
Description: as §2

[8] = tested on: Escherichia coli (DSM1116, ATCC 9637); assay: MIC broth dilution, aerobic bacteria; type: cell-based; details: 20 h at 37 °C, ± standard error, n ≥ 3
Description: as §2

[9] = tested on: Klebsiella pneumoniae (DSM 11678, ATCC33495); assay: MIC broth dilution, aerobic bacteria; type: cell-based; details: 20 h at 37 °C, ± standard error, n ≥ 3, read-out: MIC, K. pneumoniae
Description: as §2

[10] = tested on: Staphylococcus aureus MRSA (DSM 11822, ICB 25701); assay: MIC broth dilution, aerobic bacteria; type: cell-based; details: 20 h at 37 °C, ± standard error, n ≥ 3
Description: as §2

[11] = tested on: Vero E6 non-tumorigenic epithelial kidney cells; assay: Antiproliferative assay (crystal violet); type: cell-based, African green monkey; details: 72 h exposure, ± standard deviation, n = 2–4, read-out: IC50, antiproliferative effects, Vero E6
Description: as §1

[12] = biological target: T1, bacterial TrxR from E. coli (Escherichia coli, UniProt P0A9P4); assay: Inhibition of bacterial TrxR (E. coli), DTNB/5-TNB assay; type: biochemical; details: purified enzyme, 75 min incubation at 25 °C; means and standard deviations
T1 construct: purchased Sigma-Aldrich
T1 sequence (P0A9P4 whole entry): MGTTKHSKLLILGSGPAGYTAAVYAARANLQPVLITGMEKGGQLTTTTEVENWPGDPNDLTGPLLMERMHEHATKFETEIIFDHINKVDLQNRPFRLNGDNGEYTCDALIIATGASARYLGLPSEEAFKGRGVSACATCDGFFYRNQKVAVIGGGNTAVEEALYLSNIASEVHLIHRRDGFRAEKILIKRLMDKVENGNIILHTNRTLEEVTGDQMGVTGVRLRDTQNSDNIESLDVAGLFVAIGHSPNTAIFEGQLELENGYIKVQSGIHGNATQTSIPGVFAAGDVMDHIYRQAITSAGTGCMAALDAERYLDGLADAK
Description: The TrxR (E.coli) inhibition assay was performed according to a previously published procedure. It is partly based on the procedure developed by Lu et al.[35] and detects the formation of 5-TNB (5-thionitrobenzoic acid). Solutions of E. coli TrxR (35.4 U/mL) and of its substrate thioredoxin (Trx) E. coli (156 µg/mL) (both purchased from Sigma-Aldrich and diluted with distilled water) and fresh stock solutions of the test compounds (in DMF) were prepared (1c was administered as suspension). TE buffer (Tris–HCl 50 mM, EDTA 1 mM, pH 7.5) containing graded concentrations of the respective compounds (20 µL) or buffer without compounds (20 µL, as control) were mixed with TrxR solution (10 µL), Trx solution (10 µL), and a solution of NADPH (200 µM) in TE buffer (100 µL) in a well on a 96-well plate. As blank solution, 200 µM NADPH in TE buffer (100 µL) mixed with a DMF/buffer mixture (40 µL) was used (final concentrations of DMF: 0.5% v/v). The solutions on the 96-well plate were incubated for 75 min at 25 °C with moderate shaking. A volume of 100 µL of a reaction mixture (TE buffer containing 200 µM NADPH and 5 mM DTNB) was added to each well to initiate the reaction. After thorough mixing, the formation of 5-TNB was monitored by a microplate reader at 405 nm in 35 s intervals (10 measurements). The values were corrected by subtraction of the values for the blank solution. The increase in concentration of 5-TNB followed a linear trend (r^2 ≥ 0.990) and the enzymatic activities were calculated as the gradients (increase in absorbance per second) thereof. Absence of interference with the assay components was confirmed by a negative control experiment for each test compound. The highest test compound concentration was used and the enzyme solution was replaced by TE buffer for this purpose. The IC50 values were calculated as the concentration of the compound decreasing the enzymatic activity of the positive control by 50% and are presented as the means and standard deviations of independent repeated experiments.

[13] = tested on: A-549, HT-29, MDA-MB-231 and Vero E6 cells; assay: Antiproliferative assay, summary over all cell lines; type: cell-based; details: for IC50: all four cell lines, for 2c except MDA-MB-231, read-out: IC50 values, antiproliferative effects, all cell lines
Description: as §1

[14] = tested on: C. difficile strain VPI10463 (ATCC 43255), metronidazole-sensitive; assay: Antibacterial effects against C. difficile (anaerobic growth curves, OD600); type: cell-based, Clostridioides difficile
Description: (§3) (provided by Ulrich Nübel, DSMZ Braunschweig) were maintained in prereduced BHIS medium (37 g/L BHI, oxoid, 5% yeast extract, 1% L-cysteine) in a Coy-Laboratories anaerobic chamber (85% N2, 10% CO2, 5% H2) at 37 °C. Freshly prepared cultures were incubated until the exponential growth phase (OD600 = 0.2–0.4) and were adjusted to 1 × 10^6 cfu/mL before inoculation. The test compounds were dissolved in DMSO and by two-fold dilution steps concentrations in the range from 200 µM to 0.39 µM in BIHS medium were obtained. The solutions (100µL) were added to 100 µL of a diluted C. difficile culture (total volume: 200 µL in BIHS, 5 × 10^5 C. difficile, 100–0.195 µM test compound per well). The OD600-values over a period of 48 h were measured with a LogPhase 600 4-plate reader (BioTek) and compared with blank BHIS.

[15] = tested on: C. difficile strain 1296^ T (DSM 1296), metronidazole-sensitive; assay: as above; type: cell-based, Clostridioides difficile
Description: as §3

[16] = tested on: C. difficile strain IB136 (NCTC 14385), metronidazole-resistant; assay: as above; type: cell-based, Clostridioides difficile
Description: as §3

[17] = Solubility observations

Row | Compound | IC50 [1] [µM] | IC50 [2] [µM] | IC50 [3] [µM] | activity against Gram-negative strains (in words) ([4]; aerobic conditions) | MIC ([6]; 20 h at 37 °C) [µM] | MIC, E. faecium [7] [µM] | MIC [8] [µM] | MIC [9] [µM] | IC50 [11] [µM] | IC50 [12] [µM] | MIC values against all bacteria strains ([4]; aerobic conditions) | MIC [5] [µM] | MIC, E. coli [8] [µM] | MIC, MRSA [10] [µM] | IC50 [13] [µM] | other results
1 | CC(=O)OC[C@H]1O[C@@H]([S-])[C@H](OC(C)=O)[C@@H](OC(C)=O)[C@@H]1OC(C)=O.CCP(CC)CC.[Au+] [Auranofin, reference compound] | 4.2 ± 0.6 | 1.2 ± 0.3 | 10.5 ± 4.8 | lower active or inactive | > 30 | 0.6 ± 0.2 | > 30 | > 30 | 2.6 ± 0.1 | 0.21 ± 0.03 |  |  |  |  |  | activity against Gram-positive strains (in words) ([4]; aerobic conditions): strong activity; MIC, A. baumannii [5]: 7.8 ± 7.1 µM; MIC [10]: < 0.2 µM
2 | Cn1[c](=[Au][Cl])n(CC(=O)O)c2ccccc21 [Compound 2b] | > 100 | 65.7 ± 8.2 | > 80 |  | > 151.4 |  |  | > 151.4 | > 100 | 0.364 ± 0.103 | > 100 µM | > 151.4 | 151.4 ± 0.0 | 151.4 ± 0.0 | > 60 | MIC [7]: > 151.4 µM; antibacterial effect, dosages from 0.2 to 100 µM ([14]; strain VPI10463 (Figure S2)): inactive; antibacterial effect, dosages from 0.2 to 100 µM ([15]; strain 1296T (Figure S1)): inactive; antibacterial effect, dosages from 0.2 to 100 µM ([16]; strain IB136 (Figure S3)): inactive
3 | CCOC(=O)Cn1[c]([Au-][Cl])[n+](C)c2ccccc21 [Compound 2a, Chlorido-(1-(2-ethoxy-2-oxoethyl)-3-methylbenzimidazol-2-ylidene)gold(I)] | 26.1 ± 3.7 | 9.6 ± 2.7 | 19.9 ± 5.1 |  |  |  |  |  | 25.8 ± 4.6 |  |  |  |  |  | 9 to 26 | cytotoxicity of 2a relative to 2c (times stronger) ([13]; in all cases (all cell lines)): 3–4
4 | Cc1ncc([N+](=O)[O-])n1CCO [Metronidazole, reference compound] |  |  |  |  |  |  |  |  |  |  | not active |  |  |  |  | IC50 ([1]; Homo sapiens, A549): > 100 µM; IC50 ([2]; Homo sapiens, MDA-MB-231): > 100 µM; IC50 ([3]; Homo sapiens, HT-29): > 100 µM; MIC ([5]; Acinetobacter baumannii): > 350 µM; MIC ([6]; Pseudomonas aeruginosa, DSM24068, 20 h at 37 °C): > 350 µM; MIC ([7]; Enterococcus faecium): > 350 µM; MIC ([8]; Escherichia coli): > 350 µM; MIC ([9]; Klebsiella pneumoniae): > 350 µM; MIC ([10]; Staphylococcus aureus): > 350 µM; IC50 ([11]; Chlorocebus sabaeus, Vero C1008): > 100 µM; IC50 ([13]; Homo sapiens): > 100 µM; antibacterial effect at 6.25 µM ([14]; strain VPI10463, 6.25 µM, recovery of growth after extended exposure): effective inhibitors; antibacterial effect at 6.25 µM ([15]; strain 1296T, 6.25 µM, recovery of growth after extended exposure): effective inhibitors; concentration leading to a complete block of bacterial growth without recovery ([16]; metronidazole-resistant strain IB136, up to 100 µM, 48 h): no dosage of the drug could terminate the proliferation; antibacterial effect at 6.25 µM ([16]; resistant strain IB136, 6.25 µM): completely inactive
5 | CCn1[c]([Au-][Cl])[n+](CC)c2cc(C(=O)O)ccc21 [Compound 1b, Chlorido-(1,3-diethyl-5-carboxybenzimidazol-2-ylidene)gold(I)] | > 75 | 74.6 ± 1.3 | 66.3 ± 8.8 |  | > 142.0 | 142.0 ± 0.0 |  | > 142.0 | > 100 | 0.297 ± 0.031 | > 100 µM | > 142.0 | 142.0 ± 0.0 | 142.0 ± 0.0 | > 60 | 
6 | CCn1[c](=[Au][Cl])n(CC)c2cc(C(=O)OCCn3c([N+](=O)[O-])cnc3C)ccc21 [Compound 1c, Chlorido-(1,3-diethyl-5-((2-(2-methyl-5-nitroimidazol-1-yl)ethoxy)carbonyl)benzimidazol-2-ylidene)gold(I)] | > 100 | > 100 | > 100 | inactive | > 106.0 | 44.2 ± 15.3 | > 106.0 | > 106.0 | > 100 | 0.145 ± 0.038 |  | > 106.0 |  | 106.0 ± 0.0 | > 60 | solubility in organic solvents [17]: limited solubility in organic solvents; MIC values against Gram-positive strains ([4]; MRSA and E. faecium, except for 1c in MRSA): 37 to 44 µM
